The experiment relates to MIZ1. Description: HUWE1-mediated decrease in MIZ1 levels in transfected HeLa cells. As to conditions: MG132 10 µM for 6 hrs. The experiment is classed as cell-based. The text has this: Neither depletion nor chemical inhibition of HUWE1 affected the expression of any member of the MXD family of repressor proteins that antagonize transactivation by MYC or nuclear localization of MYC (Supplementary Figs S9A and S10). […] In contrast, ectopic expression of HUWE1 had only moderate effects on steady-state levels of MYC, consistent with the results obtained in response to depletion of HUWE1 (Fig6A). As a result, ectopic expression of HUWE1 increased the relative amount of MYC that is not bound to MIZ1 (Fig6B). […] Consistently, depletion or chemical inhibition of HUWE1 increased steady-state levels of MIZ1 in colon carcinoma cells (Fig6D and E). Similarly, depletion or inhibition of HUWE1 increased levels of MIZ1 in mouse keratinocytes (Supplementary Fig S11B and C), in which HUWE1 is known to degrade MIZ1 (Inoue et al, [2013]).
Peter et al. HUWE1 inhibition
B. Immunofluorescence staining of MYC upon HUWE1 inhibition. Ls174T cells were treated […]
Supplementary Figure S11: Characterization of HUWE1 effects on MIZ1 stability.
A, Effect of proteasome inhibition on HUWE1-induced downregulation of MIZ1. HeLa cells were transfected with plasmids encoding MIZ1 and HA-HUWE1. Cells were treated with BI8622 (20 µM) for 24 hrs, DMSO served as solvent control. MG132 was used at 10 µM for 6 hrs. Lysates were analyzed for expression of HUWE1 and MIZ1, Vinculin was used as […]

Where a SMILES comes first, the peptide text is derived from it. The star is where a group is joined. Cbz = O=C(OCc1ccccc1)*

For `CC(C)C[C@@H](C=O)NC(=O)[C@H](CC(C)C)NC(=O)[C@H](CC(C)C)NC(=O)OCc1ccccc1` [MG132] (Cbz-Leu-Leu-Leu-aldehyde), the “HUWE1-mediated decrease in MIZ1 levels” value is “blocked”.

(Values after paper PMC4287973, “Tumor cell-specific inhibition of MYC function using small molecule inhibitors of the HUWE1 ubiquitin ligase” (EMBO Molecular Medicine, 2014).)
